The test system of assay [1] is TF-1 cells. The assay can be described thus: Differential response of TF-1 cells against stimuli and controls at one, two and five minutes (FIG. 9B). Type of assay: cell-based. Conditions: two and five minutes after stimulation, factor 100:1 dilution in d-PBS, 25 microliter into approximately 200 microliters cell suspension.
Source text: FIG. 9B illustrates a second set of experiments, in which the differential responses of a population of TF-1 cells against numerous stimuli and controls are shown at one minute, two minutes, and five minutes after stimulation. In these experiments, a population of TF-1 cells was fractionated into two portions of equal volume and cell density immediately before the experiment. One of the two fractions received a potential stimulus, and the other a control in the form of a quantity of pure Dulbecco's phosphate buffered saline (d-PBS)equal to the quantity of d-PBS which contained the stimulant. […] Next, a series of factors and interleukins was compared against a reference sample. Each factor was introduced into one of two fractionated volumes containing TF-1 cells, via a 100:1 dilution of factor to d-PBS, followed by a 25 microliter addition of the diluted factor into approximately 200 microliters of the cell suspension. At the same time, the reference population of cells was prepared by adding 25 microliters of d-PBS alone into the second of the two cell fractions. Both fractions were then inserted into their respective channels in the apparatus, wherein said reference population was always inserted in the same channel, and measurements of the differential voltage were taken at pre-defined intervals over a five minute period. After each experiment, both channels were flushed with ˜2 ml of cell-free culture media, to insure that all previous cellular material and any other potential compounds from a given experiment were removed from the channel before the subsequent experiment.
The target of a further assay is concanavalin-A (Canavalia ensiformis, UniProt P02866). The assay can be described thus: Binding of dextran in solution to concanavalin-A immobilized on the measurement probes (FIG. 6). The conditions noted are these: phosphate buffered saline with calcium and magnesium, physiologic pH and osmolarity; regions 600b and 600c of FIG. 6. An excerpt: A common AC voltage of approximately 40 millivolts and at a frequency of approximately 1 KHz is placed upon measurement probes 313 and 323. The circuit continues across the interface of measurement probes 313 and 323, through the conductive solution in sample chambers 310 and 320, and completed via attachment of signal grounds 314 and 324.
The voltage difference between measurement probes 313 and 317 is placed across the antipodal inputs of the first differential amplifier 221; similarly, the voltage across measurement probes 323 and 327 is placed across antipodal inputs of the second differential amplifier 222. The amplified differential voltages produced by 221 and 222 are fed into DC-converters 224 and 225 (e.g., root-mean-square averaging devices. The outputs 221a and 222a, being now of a DC nature, are input into antipodal inputs of the third differential amplifier 226, the resulting difference signal 227 being measured by a simple voltmeter 400, said voltmeter referenced to the common ground. This voltage is directly proportional to the difference in the voltage drops across the two pairs of measurement probes 313 and 317, and 323 and 327.
FIG. 6 illustrates the result of a second experiment using the monitoring system of FIG. 3B. […]

The test system of assay [2] is TF-1 cells. The conditions noted are these: stated as known, background knowledge; cited from earlier work.
The subject of assay [3] is TF-1 cells. The assay can be described thus: Differential response of TF-1 cells stimulated vs un-stimulated, monitoring system of FIG. 8 (FIG. 9A). The class given is cell-based. An excerpt:
In this set of experiments, the monitoring system as shown in FIG. 8 was used to directly compare the activity of a known modification of the extra-cellular environment to controls. In the monitoring system of FIG. 8, two sample chambers (formed a fluid channels) 800a and 800b, along with four ports 801a-d, were fabricated using micromachining techniques on an acrylic substrate. The dimensions of the channels were approximately 250 micrometers wide, 100 micrometers deep, and with a total length of approximately 1.5 centimeters. The substrate was fastened in a water-tight manner, using thin film epoxy, to a pre-fabricated printed circuit board (not explicitly shown), on which eight gold-plated copper conductive traces 820a-d and 830a-d of width approximately 250 micrometers were deposited. Using the monitoring system architecture shown in FIG. 3D, in which the phase meter 223 was not present and DC-converters 224 and 225 comprised a device which converts and AC signal into a DC signal, whose amplitude is roughly the root-mean-square (RMS) of the AC amplitude. […]

The values that follow come from patent US7713477B2, “Systems and methods for monitoring chemical and biological activities using differential measurements” (priority 2002, dated 2010).

With IL5: interleukin tested on TF-1 cells, the “differential response over the three controls” value in the assay with TF-1 cells [1] is recorded as “significantly larger differential response over the three controls”.

dextran: at concanavalin-A, the “binding of dextran to immobilized concanavalin-A, shown as new voltage level” value was “bound specifically to the immobilized concanavalin-A molecules”.

For “bovine serum albumin [BSA, reference compound]”, the “known activity against TF-1 cells” value with TF-1 cells [2] is recorded as “known not to affect TF-1 cells”.

For the molecule “granulocyte-macrophage colony stimulating factor [GM-CSF]”, the “known activity against TF-1 cells” value in the assay on TF-1 cells [2] is given as “induces cell proliferation in TF-1 cells”. Also, the “time at which change in differential response begins” value with TF-1 cells [3] (AC approximately 10 KHz, thirty minute experiment, change continues nearly monotonic) is recorded as “around eight”. Also, the “differential response of stimulated cells over the control” value with TF-1 cells [3] (AC frequency approximately 10 KHz, about 2 million cells per milliliter, GM-CSF in quantity to elicit maximum response, followed thirty minutes) is given as “show a change in the differential response over the control”. Further, the “differential response over the three controls” value in the assay on TF-1 cells [1] is given as “significantly larger differential response over the three controls”.

B1: IL4: interleukin tested on TF-1 cells (protein, UniProt P05112 25-153, looked up)
Interleukin-4: HKCDITLQEIIKTLNSLTEQKTLCTELTVTDIFAASKNTTEKETFCRAATVLRQFYSHHEKDTRCLGATAQQFHRHKQLIRFLKRLDRNLWGLAGLNSCPVKEANQSTLENFLERLKTIMREKYSKCSS
Regarding B1, in the assay on TF-1 cells [1], the “differential response over the three controls” value was “significantly larger differential response over the three controls”.
